Experimental data from patent publication US9896441B2 (Lycera Corporation, priority 2014, dated 2018).

How the values were obtained:
[1] = molecular target: T1, RORγ-LBD (Homo sapiens, UniProt P51449); experiment: RORγ-Ligand Binding Domain (LBD) TR-FRET Assay; assay type: biochemical; details: RORγ-LBD TR-FRET
T1 construct: made in house; host or cells: SF9 cells (baculovirus); used as diluted lysate
T1 sequence (P51449 269-508 limits assumed): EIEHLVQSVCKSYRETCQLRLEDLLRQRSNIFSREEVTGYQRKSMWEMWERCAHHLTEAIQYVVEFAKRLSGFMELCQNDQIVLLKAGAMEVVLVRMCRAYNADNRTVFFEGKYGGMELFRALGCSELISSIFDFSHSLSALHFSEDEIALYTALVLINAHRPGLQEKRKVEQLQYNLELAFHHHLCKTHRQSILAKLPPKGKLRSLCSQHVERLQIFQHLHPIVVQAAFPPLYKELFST
Outline: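 Compounds, diluted in DMSO and then in assay buffer (1% DMSO final), were combined with His-tagged RORγ-LBD lysate at roughly 3 nM final and a 200 nM biotinylated SRC1 LXXLL peptide. Ursolic acid was included at 2 μM final. Coactivator recruitment was detected by TR-FRET.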

[2] = molecular target: T2, Gal4-RORγ-LBD (Homo sapiens, UniProt P51449); experiment: Gal4-RORγ Luciferase Reporter Assay in HEK-293T Cells; assay type: cell-based; details: HEK-293 cells, luciferase reporter, with ursolic acid
T2 construct: expressed in transfected cells
T2 sequence (P51449 269-508 limits assumed): T1 sequence (P51449 269-508 limits assumed)
Outline: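 Max Response was taken as the upper plateau of a 4-parameter logistic fit of luciferase signal, normalized to 100 for wells without ursolic acid or compound. Transiently Gal4-RORγ-LBD/Gal4-luc transfected HEK-293 cells carrying […] ursolic acid were incubated with test compounds (0.2% DMSO) overnight at 37 °C and read with One-Glo.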

Row | Structure (SMILES) | EC50 [1] [nM] | EC50 [2] [nM]
1 | COC(=O)C(C)(C)C[C@@H]1Cc2ccc(OCc3c(F)cccc3Cl)cc2N(S(=O)(=O)c2ccc(F)c(OC)c2)C1 [Example 26, (S)-Methyl 3-(7-((2-chloro-6-fluorobenzyl)oxy)-1-((4-fluoro-3-methoxyphenyl)sulfonyl)-1,2,3,4-tetrahydroquinolin-3-yl)-2,2-dimethylpropanoate] | < 500 | < 500
2 | COc1cc(S(=O)(=O)N2C[C@H](CC(C)(C)C(=O)O)Cc3ccc(OCc4c(F)cccc4Cl)cc32)ccc1F [Example 27, (S)-3-(7-((2-Chloro-6-fluorobenzyl)oxy)-1-((4-fluoro-3-methoxyphenyl)sulfonyl)-1,2,3,4-tetrahydroquinolin-3-yl)-2,2-dimethylpropanoic acid] | < 500 | < 500
3 | COC(=O)CC[C@H]1CN(S(=O)(=O)c2cccc(C(F)(F)F)c2)c2cc(/C(C)=C/c3c(F)cccc3Cl)ccc2O1 [Example 31, (S,E)-Methyl 3-(6-(1-(2-chloro-6-fluorophenyl)prop-1-en-2-yl)-4-((3-(trifluoromethyl)phenyl)sulfonyl)-3,4-dihydro-2H-benzo[b][1,4]oxazin-2-yl)propanoate] | < 500 | 500 to 5000
4 | C/C(=C\c1c(F)cccc1Cl)c1ccc2c(c1)N(S(=O)(=O)c1cccc(C(F)(F)F)c1)C[C@H](CCC(=O)O)O2 [Example 32, (S,E)-3-(6-(1-(2-Chloro-6-fluorophenyl)prop-1-en-2-yl)-4-((3-(trifluoromethyl)phenyl)sulfonyl)-3,4-dihydro-2H-benzo[b][1,4]oxazin-2-yl)propanoic acid] | < 500 | 5000 to 10000
5 | CCOc1ncc(C(F)(F)F)cc1S(=O)(=O)N1C[C@H](CCC(=O)OC)Oc2ccc(/C=C(\C)c3c(F)cccc3Cl)cc21 [Example 33, (S,E)-Methyl 3-(6-(2-(2-chloro-6-fluorophenyl)prop-1-en-1-yl)-4-((2-ethoxy-5-(trifluoromethyl)pyridin-3-yl)sulfonyl)-3,4-dihydro-2H-benzo[b][1,4]oxazin-2-yl)propanoate] | < 500 | 500 to 5000
6 | CCOc1ncc(C(F)(F)F)cc1S(=O)(=O)N1C[C@H](CCC(=O)O)Oc2ccc(/C=C(\C)c3c(F)cccc3Cl)cc21 [Example 34, (S,E)-3-(6-(2-(2-Chloro-6-fluorophenyl)prop-1-en-1-yl)-4-((2-ethoxy-5-(trifluoromethyl)pyridin-3-yl)sulfonyl)-3,4-dihydro-2H-benzo[b][1,4]oxazin-2-yl)propanoic acid] | < 500 | 500 to 5000
7 | CC/C(=C\c1ccc2c(c1)N(S(=O)(=O)c1cccc(C(F)(F)F)c1)C[C@H](CCC(=O)OC)O2)c1ccccc1Cl [Example 35, Methyl (S,E)-3-(6-(2-(2-chlorophenyl)but-1-en-1-yl)-4-((3-(trifluoromethyl)phenyl)sulfonyl)-3,4-dihydro-2H-benzo[b][1,4]oxazin-2-yl)propanoate] | < 500 | 500 to 5000
8 | O=C(O)CC[C@H]1CN(S(=O)(=O)c2cccc(C(F)(F)F)c2)c2cc(/C=C3\CCCc4ccccc43)ccc2O1 [Example 37, (S,E)-3-(6-((3,4-Dihydronaphthalen-1(2H)-ylidene)methyl)-4-((3-(trifluoromethyl)phenyl)sulfonyl)-3,4-dihydro-2H-benzo[b][1,4]oxazin-2-yl)propanoic acid] | < 500 | < 500
9 | COC(=O)CC[C@H]1CN(S(=O)(=O)c2cccc(C(F)(F)F)c2)c2cc(/C=C(\C)c3c(F)cccc3Cl)c(F)cc2O1 [Example 41, (S,E)-Methyl 3-(6-(2-(2-chloro-6-fluorophenyl)prop-1-en-1-yl)-7-fluoro-4-((3-(trifluoromethyl)phenyl)sulfonyl)-3,4-dihydro-2H-benzo[b][1,4]oxazin-2-yl)propanoate] | < 500 | < 500
10 | C/C(=C\c1cc2c(cc1F)O[C@@H](CCC(=O)O)CN2S(=O)(=O)c1cccc(C(F)(F)F)c1)c1c(F)cccc1Cl [Example 42, (S,E)-3-(6-(2-(2-Chloro-6-fluorophenyl)prop-1-en-1-yl)-7-fluoro-4-((3-(trifluoromethyl)phenyl)sulfonyl)-3,4-dihydro-2H-benzo[b][1,4]oxazin-2-yl)propanoic acid] | < 500 | 500 to 5000
11 | COC(=O)CC[C@H]1CN(S(=O)(=O)c2cccc(OC(F)F)c2)c2cc(/C=C(\C)c3c(F)cccc3Cl)c(F)cc2O1 [Example 43, (S,E)-Methyl 3-(6-(2-(2-chloro-6-fluorophenyl)prop-1-en-1-yl)-4-((3-(difluoromethoxy)phenyl)sulfonyl)-7-fluoro-3,4-dihydro-2H-benzo[b][1,4]oxazin-2-yl)propanoate] | < 500 | < 500
12 | C/C(=C\c1cc2c(cc1F)O[C@@H](CCC(=O)O)CN2S(=O)(=O)c1cccc(OC(F)F)c1)c1c(F)cccc1Cl [Example 44, (S,E)-3-(6-(2-(2-Chloro-6-fluorophenyl)prop-1-en-1-yl)-4-((3-(difluoromethoxy)phenyl)sulfonyl)-7-fluoro-3,4-dihydro-2H-benzo[b][1,4]oxazin-2-yl)propanoic acid] | < 500 | 500 to 5000
13 | COC(=O)CC[C@H]1CN(S(=O)(=O)c2cccc(C(F)(F)F)c2)c2cc(/C=C(\C)c3c(F)cccc3Cl)c(Cl)cc2O1 [Example 45, (S,E)-Methyl 3-(7-chloro-6-(2-(2-chloro-6-fluorophenyl)prop-1-en-1-yl)-4-((3-(trifluoromethyl)phenyl)sulfonyl)-3,4-dihydro-2H-benzo[b][1,4]oxazin-2-yl)propanoate] | < 500 | 500 to 5000

The next lines start with the values.

Row | EC50 [1] [nM] | EC50 [2] [nM] | Structure (SMILES)
14 | < 500 | < 500 | COc1cc(S(=O)(=O)N2CCCc3ccc(OCc4c(F)cccc4C(F)(F)F)cc32)ccc1F [Example 25R, 1-((4-fluoro-3-methoxyphenyl)sulfonyl)-7-((2-fluoro-6-(trifluoromethyl)benzyl)oxy)-1,2,3,4-tetrahydroquinoline]
15 | < 500 | < 500 | COc1cc(S(=O)(=O)N2CCCc3ccc(OCc4c(C)cccc4Cl)cc32)ccc1F [Example 25W, 7-((2-chloro-6-methylbenzyl)oxy)-1-((4-fluoro-3-methoxyphenyl)sulfonyl)-1,2,3,4-tetrahydroquinoline]
16 | < 500 | 500 to 5000 | CC/C(=C\c1ccc2c(c1)N(S(=O)(=O)c1cccc(C(F)(F)F)c1)C[C@H](CCC(=O)O)O2)c1ccccc1 [Example 36C, (S,E)-3-(6-(2-phenylbut-1-en-1-yl)-4-((3-(trifluoromethyl)-phenyl)sulfonyl)-3,4-dihydro-2H-benzo[b][1,4]oxazin-2-yl)propanoic acid]
17 | < 500 | 500 to 5000 | COC(=O)CC[C@H]1CN(S(=O)(=O)c2cccc(C(F)(F)F)c2)c2cc(/C=C3\CCOc4ccccc43)ccc2O1 [Example 38A, methyl (S,E)-3-(6-(chroman-4-ylidenemethyl)-4-((3-(trifluoromethyl)phenyl)sulfonyl)-3,4-dihydro-2H-benzo[b][1,4]oxazin-2-yl)propanoate]
18 | < 500 | 500 to 5000 | O=C(O)CC[C@H]1CN(S(=O)(=O)c2cccc(C(F)(F)F)c2)c2cc(/C=C3\CCOc4ccccc43)ccc2O1 [Example 38B, (S,E)-3-(6-(chroman-4-ylidenemethyl)-4-((3-(trifluoromethyl)-phenyl)sulfonyl)-3,4-dihydro-2H-benzo[b][1,4]oxazin-2-yl)propanoic acid]
